Measured values taken from ChEMBL document CHEMBL5303304, “EUbOPEN Chemogenomics Library - IncuCyte” (2023).

Columns and labels:
Type in all cases: toxicity, cell-based
Fibroblast = experiment: Incucyte cell viability with human fibroblast; conditions: 10 µM, compound concentration 10 uM
HEK-293T = experiment: Incucyte cell viability with HEK293T; conditions: human, 10 µM, compound concentration 10 uM
U2OS = experiment: Incucyte cell viability with U2OS; conditions: human, 10 µM, compound concentration 10 uM
Further: unitless GR value; below 1 slowed growth and below 0 cell loss.

SMILES | Growth Rate (Fibroblast; 0 h, replicate number 1) | Growth Rate (Fibroblast; 0 h, replicate number 2) | Growth Rate (Fibroblast; 12 h, replicate number 2) | Growth Rate (Fibroblast; 18 h, replicate number 2) | Growth Rate (Fibroblast; 24 h, replicate number 2) | Growth Rate (HEK-293T; 6 h, replicate number 1) | Growth Rate (HEK-293T; 12 h, replicate number 1) | Growth Rate (HEK-293T; 18 h, replicate number 1) | Growth Rate (U2OS; 6 h, replicate number 1) | Growth Rate (U2OS; 12 h, replicate number 2) | Growth Rate (U2OS; 18 h, replicate number 1) | Growth Rate (U2OS; 24 h, replicate number 1) | Growth Rate (Fibroblast; 6 h, replicate number 1) | Growth Rate (HEK-293T; 12 h, replicate number 2) | Growth Rate (HEK-293T; 18 h, replicate number 2) | Growth Rate (HEK-293T; 24 h, replicate number 2) | Growth Rate (U2OS; 0 h, replicate number 2) | Growth Rate (U2OS; 24 h, replicate number 2) | Growth Rate (U2OS; 18 h, replicate number 2) | Growth Rate (HEK-293T; 0 h, replicate number 1) | further results
CCCCCCCC/C=C\CCCCCCCC(=O)NCc1ccc(O)c(OC)c1 [OLVANIL] | 0.97 | -0.71 | 0.83 | 0.53 | 0.68 | -0.94 | -0.75 | -0.47 | 0.77 | 0.94 | 0.88 | 0.87 | – | – | – | – | – | – | – | – | Growth Rate (Fibroblast; 24 h, replicate number 1): 0.91; Growth Rate (HEK-293T; 0 h, replicate number 2): 0.7; Growth Rate (HEK-293T; 24 h, replicate number 1): -0.25; Growth Rate (U2OS; 6 h, replicate number 2): 0.84
COc1ccc(CCN(C)CCCC(C#N)(c2cc(OC)c(OC)c(OC)c2)C(C)C)cc1OC.Cl (centres undefined) [GALLOPAMIL HYDROCHLORIDE] | -0.26 | – | 0.12 | 0.41 | 0.73 | 0.31 | 0.9 | – | – | – | – | – | -0.5 | 0.97 | 0.94 | 0.94 | -0.88 | 1 | – | – | Growth Rate (Fibroblast; 6 h, replicate number 2): 0.16; Growth Rate (Fibroblast; 12 h, replicate number 1): 0.03
COC[C@@H](C)N[C@H]1CC[C@H](Nc2cc(-c3cccc(NCC4(C#N)CCOCC4)n3)c(Cl)cn2)CC1 | – | -1 | -0.06 | -0.22 | -0.12 | -0.07 | 0.2 | 0.22 | 0.79 | 0.62 | 0.59 | 0.79 | 0.06 | 0.18 | 0.24 | 0.35 | 0.56 | 0.68 | 0.71 | – | Growth Rate (Fibroblast; 6 h, replicate number 2): -0.13; Growth Rate (Fibroblast; 12 h, replicate number 1): -0.08; Growth Rate (Fibroblast; 18 h, replicate number 1): -0.12; Growth Rate (Fibroblast; 24 h, replicate number 1): -0.09; Growth Rate (HEK-293T; 24 h, replicate number 1): 0.27; Growth Rate (U2OS; 6 h, replicate number 2): 0.56; Growth Rate (U2OS; 12 h, replicate number 1): 0.88
O=C1NC(Nc2ccccc2)=N/C1=C\c1ccc2c(c1)OCO2 | – | -0.92 | – | – | – | 0.83 | 0.37 | 0.43 | – | 0.39 | 0.85 | 0.95 | -0.96 | 0.19 | 0.47 | 0.33 | – | 0.66 | 0.66 | 0.4 | Growth Rate (HEK-293T; 0 h, replicate number 2): 0.1; Growth Rate (HEK-293T; 6 h, replicate number 2): 0; Growth Rate (HEK-293T; 24 h, replicate number 1): 0.56; Growth Rate (U2OS; 6 h, replicate number 2): 0.78
NS(=O)(=O)c1ccc(Nc2nc(OCC3CCCCC3)c3nc[nH]c3n2)cc1 | -1 | – | 0.55 | 0.56 | – | – | – | – | -0.3 | – | 0.8 | 0.87 | – | 0.98 | 0.9 | 0.82 | – | 0.93 | 0.94 | 0.76 | Growth Rate (U2OS; 0 h, replicate number 1): -0.84; Growth Rate (U2OS; 12 h, replicate number 1): 0.53
CN1C2CCCC1CC(Nc1ccccc1Br)C2 (centres undefined) | 0.86 | 0.67 | 0.88 | 0.95 | 0.92 | – | – | – | – | – | – | – | -0.98 | – | – | 0.99 | -0.9 | – | – | 0.87 | Growth Rate (Fibroblast; 6 h, replicate number 2): -0.45; Growth Rate (Fibroblast; 12 h, replicate number 1): 0.42; Growth Rate (HEK-293T; 6 h, replicate number 2): 0.99
Cc1cccc(-c2nn3c(c2-c2ccnc4ccc(C(N)=O)cc24)CCC3)n1 [GALUNISERTIB] | – | -0.6 | – | – | – | – | – | – | 0.57 | 0.83 | 0.75 | 0.93 | – | 0.74 | 0.73 | 0.8 | 0.64 | 0.76 | 0.87 | -0.5 | Growth Rate (HEK-293T; 6 h, replicate number 2): 0.64; Growth Rate (U2OS; 0 h, replicate number 1): -0.43; Growth Rate (U2OS; 12 h, replicate number 1): 0.66
